The results in this text go back to BindingDB's records for patent US11548890 (Nimbus Saturn, 2023).

Mitogen-activated protein kinase kinase kinase kinase 1, sequence (Q92918 whole entry): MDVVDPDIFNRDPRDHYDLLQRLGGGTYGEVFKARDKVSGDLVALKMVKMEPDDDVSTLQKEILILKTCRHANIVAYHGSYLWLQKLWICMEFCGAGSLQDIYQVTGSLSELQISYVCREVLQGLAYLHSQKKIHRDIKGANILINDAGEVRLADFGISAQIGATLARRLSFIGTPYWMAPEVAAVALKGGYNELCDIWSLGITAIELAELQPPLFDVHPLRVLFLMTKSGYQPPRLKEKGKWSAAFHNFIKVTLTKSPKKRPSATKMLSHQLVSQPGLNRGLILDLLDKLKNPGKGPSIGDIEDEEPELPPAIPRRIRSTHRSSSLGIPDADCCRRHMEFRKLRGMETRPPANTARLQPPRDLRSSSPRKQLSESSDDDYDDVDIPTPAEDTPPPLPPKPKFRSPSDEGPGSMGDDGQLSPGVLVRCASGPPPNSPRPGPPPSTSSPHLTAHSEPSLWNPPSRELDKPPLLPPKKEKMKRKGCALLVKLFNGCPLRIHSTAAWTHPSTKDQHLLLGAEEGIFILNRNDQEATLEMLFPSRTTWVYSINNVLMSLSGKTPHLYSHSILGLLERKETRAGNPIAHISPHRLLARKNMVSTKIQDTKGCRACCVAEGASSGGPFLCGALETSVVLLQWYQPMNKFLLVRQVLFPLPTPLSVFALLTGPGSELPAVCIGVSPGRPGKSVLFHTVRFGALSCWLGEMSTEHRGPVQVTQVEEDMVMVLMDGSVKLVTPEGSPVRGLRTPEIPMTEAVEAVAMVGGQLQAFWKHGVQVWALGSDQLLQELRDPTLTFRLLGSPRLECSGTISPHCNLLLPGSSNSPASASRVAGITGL

In this assay the target is Mitogen-activated protein kinase kinase kinase kinase 1 (Homo sapiens, UniProt Q92918). Nature of the assay: HPK1 Biochemical Enzyme Assay. As for the experimental part:
HPK1 biochemical enzyme assay: HPK1 enzyme inhibition was measured using a microfluidic mobility shift assay. […] Test compounds were titrated in ten point curves (top final assay concentration 3 μM), and preincubated with enzyme/substrate mix for 30 min prior to initiation of the reaction by addition of ATP (1 mM final concentration) and substrate (1 μM final concentration; Carna Biosciences) diluted in assay buffer supplemented by MgCl2 (final assay concentration of 5 mM). Following 60 min incubation at RT, the reaction was terminated by addition of 60 μl/well termination buffer (Carna Biosciences) and signal determination using a Caliper EZ Reader (Perkin Elmer, UK).
In the case of `CC1=CC2N=CC(c3ccc(Nc4ccc(N5CCC(O)CC5)cn4)c4c3CNC4=O)=C2C=C1` (centres undefined) [US11548890, Compound I-137], the IC50 was under 100 nM.
Under `COC1CCN(c2ccc(Nc3ccc(-c4cnc5c(F)cccn45)c4c3C(=O)NC4)nc2)CC1` [US11548890, Compound I-455] stands “in the range around 550 nM”; under `CC(C)(O)[C@H]1CN(c2ccc(Nc3cnc(-c4cnc5cnccn45)c4c3C(=O)NC4)nc2)CCO1` [US11548890, Compound I-486], under 100 nM; under `CN(C)Cc1nc(Nc2ccc(-c3cnc4ccccn34)c3c2C(=O)NC3)ccc1[C@@H]1CCOC1` [US11548890, Compound I-714], under 100 nM.

One may read the IC50 as the concentration that gives 50% inhibition. Read a high IC50 as lower potency.
